Test results published in patent publication US20240316051A1, “A PHARMACEUTICAL COMBINATION AND USE THEREOF” (Ascentage Pharma (Suzhou) Co., Ltd., priority 2021, published 2024).

What was measured:
Format in all cases: in vivo, mice
[1] = tested on: BAP1 mut mesothelioma PDX model; assay: BAP1 mut mesothelioma PDX model (Examples 15-17); settings: orally, once per day, 28 days
Protocol: (§1) A subcutaneous xenograft tumor model of human tumor immunodeficient mice was established by cell inoculation: tumor cells in logarithmic growth phase were collected, counted, resuspended in 1×PBS, and the cell suspension concentration was adjusted to 2.5-5×10^7/mL. The tumor cells were inoculated subcutaneously in the right side of immunodeficient mice with a 1 ml syringe ([…]), 5-10×10^6/0.2 mL/mouse. All animal experiments were strictly in accordance with the specifications for the use and management of experimental animals in GenePharma Co., Ltd. and Suzhou Ascentage Pharma Co., Ltd. The calculation of relevant parameters refers to the Chinese NMPA “Guidelines for Non-Clinical Research Techniques of Cytotoxic Anti-tumor Drugs”.
(§2) Animal body weight and tumor size were measured twice weekly during the experiment. The state of the animal and the presence or absence of death were observed every day. The growth of tumor and the effects of treatment on normal behavior of animals were monitored routinely, specifically involving experimental animal activity, feeding and drinking, weight gain or loss, eyes, clothing hair and other abnormalities. The deaths and clinical symptoms observed during the experiment were recorded in the raw data. All operations for administration and measurement of mouse body weight and tumor volume were performed in a clean bench. According to the requirements of the experimental protocol, after the end of the last administration, plasma and tumor tissues were collected, weighed and photographed. The plasma and tumor samples were frozen at −80° C. for ready-to-use.
(§3) Tumor volume (TV) is calculated as: TV=a×b^2/2, wherein a and b represent the length and width of the tumor to be measured, respectively.
(§4) The relative tumor volume (RTV) is calculated as: RTV=Vt/V1, wherein V1 is the tumor volume at the start of grouping and administration, and Vt is the tumor volume measured on the t day after administration.
(§5) The evaluation index of anti-tumor activity is the relative tumor proliferation rate T/C (%), and the calculation formula thereof is: relative tumor proliferation rate T/C (%)=(TRTV/CRTV)×100%, TRTV is the RTV of treatment group, CRTV is the RTV of solvent control group.
(§6) A dose of drug is considered to be severely toxic if the body weight of mouse is reduced by more than 20% or the number of drug-related deaths exceeds 20%.
(§7) According to the description by Clarke R., Issues in experimental design and endpoint analysis in the study of experimental cytotoxic agents in vivo in breast cancer and other models [J]. Breast Cancer Research & Treatment, 1997, 46(2-3): 255-278, synergy analysis was evaluated using the following formula: synergy factor=((A/C)×(B/C))/(AB/C); A=RTV value of drug A alone group; B=RTV value of drug B alone group; C=RTV value of the solvent control group, and AB=RTV value of the A and B combination group.
In this experiment, a BAP1 mut mesothelioma PDX model (Lide Biotech) was established to evaluate the anti-tumor effect of Compound 73. The dosing regimen was as follows: • Compound 73: 50 mg/kg, orally, once per day, for a total of 28 days; • Compound 73: 100 mg/kg, orally, once per day, for a total of 28 days;
In this experiment, a BAP1 mut mesothelioma PDX model (Lide Biotech) was established to evaluate the anti-tumor effect of Compound 73 in combination with Compound A-1. […]

[2] = tested on: BAP1 mut mesothelioma PDX model; assay: Subcutaneous BAP1 mut mesothelioma PDX model (Example 21); settings: Compound 73 100 mg/kg orally once per day, Compound C 50 mg/kg orally every other day, 36 days; alone or combined
Protocol: as §1, §2, §3, §4, §5
(§8) Change of body weight (%)=(measured body weight-body weight at the start of grouping)/body weight at the start of grouping×100%.
as §6
In this experiment, subcutaneous BAP1 mut mesothelioma PDX model was established (Lide Biotech) to evaluate the anti-tumor effect of Compound 73 in combination with Compound C. […]

[3] = tested on: NCI-H28(X1) (BAP1mut, UHRF1high, TP53WT, CDKN2Adel, FGFRlow, NF2WT) subcutaneous mesothelioma xenograft; assay: NCI-H28(X1) subcutaneous mesothelioma xenograft model (Example 23); settings: Compound C 50 mg/kg orally every other day, Compound 73 100 mg/kg orally once per day, 28 days, alone or combined
Protocol: as §1, §2, §3, §4
The evaluation index of anti-tumor activity is the relative tumor proliferation rate T/C (%), and the calculation formula thereof is: relative tumor proliferation rate T/C (%)=(TRTV/CRTV)×100%, TRTV is the RTV of treatment group, CRTV is the RTV of solvent control group. […]
as §7, with “group. […]” for “group.”

[4] = tested on: 22RV1 prostate xenograft; assay: Subcutaneous 22RV1 prostate xenograft model (Example 24)
Protocol: as §1, §2, §3, §4, §5, §8, §6, §7
In this experiment, subcutaneous 22RV1 prostate xenograft model was established to evaluate the anti-tumor effect of Compound 73 in combination with Compound C. The dosing regimen was as follows: • Compound C: 100 mg/kg, orally, every other day, for a total of 28 days; • Compound 73: 100 mg/kg, orally, once per day, for a total of 28 days;
The dosing regimen of each drug in the dosing regimen for the combination is the same as the dosing regimen for the single drug, for a total of 28 days.

CC(C)N1Cc2cc(C(F)(F)F)ncc2-c2cnc(NCc3c(F)ccc4c3CCO4)n3cnc(c23)C1=O [Compound 73, 12-(((5-fluoro-2,3-dihydrobenzofuran-4-yl)methyl)amino)-4-isopropyl-7-(trifluoromethyl)-4,5-dihydro-3H-2,4,8,11,12a-pentaazabenzo[4,5]cycloocta[1,2,3-cd]inden-3-one]
T/C (%) ([1]; Compound 73 50 mg/kg, end of study): 69.7% | T/C (%) ([1]; Compound 73 100 mg/kg, 100 mg/kg): 60% | antitumor activity (in words) ([1]; Compound 73 single agent, 50 and 100 mg/kg): dose-dependent antitumor activity | RTV @ D 36 [2]: 5.43 | T/C (%) @ D 36 [2]: 37.22% | T/C (%) @ D 29 [3]: 33.06% | RTV@ D 29 ([3]; mean ± SEM): 5.05 ± 0.41 | RTV@ D 26 ([4]; 22RV1 xenograft, day 26, Compound 73 100 mg/kg orally once per day, Compound C 50 mg/kg (table) orally every other day): 7.91 ± 0.74 | T/C(%) @ D 26 ([4]; 22RV1 xenograft, day 26, Compound 73 100 mg/kg, Compound C 50 mg/kg (table)): 49.89% | RTV@ D 29 ([4]; 22RV1 xenograft, day 29): 9.28 ± 0.61 | RTV@ D 32 ([4]; 22RV1 xenograft, day 32): 11.53 ± 0.68 | T/C value ([4]; day 26, Compound C 100 mg/kg orally every other day, Compound 73 100 mg/kg orally once per day, alone or combined): 49.89%
